Results taken from patent US7781472B2, “Therapy for the treatment of disease” (TheraVida, Inc., priority 2005, dated 2010).

Tests used:
[1] = Plasma concentration of oxybutynin after 5 mg oxybutynin alone or followed by 5 mg pilocarpine, four way crossover clinical trial; assay type: in vivo, human; conditions: 5 mg pilocarpine 30 min after 5 mg oxybutynin
Procedure: (§1) The following measurements are made just prior to and at frequent intervals for up to 6 hours post dose: • Salivary flow is determined by chewing Parafilm for 2 minutes • Dry mouth is determined by VAS • Urine volume/void and frequency over 6 hours post dose is measured • Blood samples are taken for pharmacokinetics at pre-dose, and at 0.5, 1, 2, 3, 4, and 6 hours post dose • Food and water intake are standardized over the 6 hour period
The study is a double blind, randomized, placebo-controlled, with 4 sequences (4 doses over 4 weeks) with the drugs being administered orally as a single dose. There is a One-week washout between study days. […]
Plasma Concentration of Oxybutynin—In a separate study, the plasma concentration of oxybutynin was measured in two groups of subjects: one group received 5 mg of oxybutynin alone and another group received 5 mg of oxybutynin followed by 5 mg pilocarpine after 30 min. The plasma concentrations were measured before the administration of oxybutynin and in hours 1, 2, 3, 4, and 6 after its administration. […]

healthy human subject [2] = test: Stimulated saliva flow, case study of oxybutynin and pilocarpine alone and combined (Example 4); assay type: in vivo; conditions: FIG. 1; for amount of saliva flow collected over 2 minute periods after dosing (in words): single agent alone (oxybutynin HCl 5 mg; pilocarpine HCl), single healthy subject, 8 hour period; for time at which saliva flow reached the pre-dose level: single agent alone, post-dosing
Procedure: as §1
In this study, the effect of oxybutynin, pilocarpine, the combination of the two, and placebo was measured in six separate, yet identical, studies in a single individual.
Effect of Oxybutynin—A healthy human subject was given a 5 mg dose of oxybutynin HCl and the amount of salivation was measured with time over an 8 hour period. […]

healthy human subject [3] = test: Stimulated salivary flow, case study of oxybutynin and cevimeline alone and combined (Example 5); assay type: in vivo; conditions: for Amount of Saliva Collecetd over 2 min: cevimeline 30 mg and/or oxybutynin 5 mg oral, single subject, in g; for amount of saliva flow collected over 2 minute periods after dosing (in words) / time at which saliva flow reached the pre-dose level: single agent alone (oxybutynin HCl 5 mg; cevimeline 30 mg)
Procedure: In this study, the effect of oxybutynin, cevimeline, the combination of the two, and placebo was measured in separate studies in a single individual.
Effect of Oxybutynin—A healthy human subject was given a 5 mg dose of oxybutynin HCl and the amount of salivation was measured with time over an 8 hour period. As shown in FIG. 5 (●, circle), the amount of saliva flow collected over 2 minutes periods decreased after dosing and the saliva flow remained low after 3 hrs. The amount of saliva flow started increasing after 3 hrs and continued increasing reaching the pre-dose level after 8 hrs post-dosing. The data generated in this study is consistent with the literature data.
Effect of Cevimeline—In a separate human study the effect of administering 30 mg of cevimeline was evaluated in a healthy human subject to ensure that cevimeline indeed increases salivary gland flow. […] The decrease in saliva flow continued until it reached about the normal saliva flow and pre-dosing level after about 6 hrs.
Effect of Combination of Oxybutynin and Cevimeline—In a separate human study, the combination of oxybutynin and cevimeline was administered to a healthy human subject. To the subject 5 mg of oxybutynin followed simultaneously by 30 mg of cevimeline, with no time delay, was administered. Saliva flow was measured as before. Results are shown in FIG. 5 (▪, square), where the combination is referred to as THVD-102.

healthy human subject [4] = test: Stimulated saliva flow, case study of tolterodine and pilocarpine (Example 6); assay type: in vivo; conditions: 2 mg tolterodine tartrate alone
Procedure: In this study, the effect of tolterodine, pilocarpine, the combination of the two, and placebo was measured in separate, yet identical, studies in a single individual.
Effect of Tolterodine—A healthy human subject was given a 2 mg dose of tolterodine tartrate and the amount of salivation was measured with time over an 8 hour period. As shown in FIGS. 6 and 7 (♦, diamond), the amount of saliva flow collected over 2 minute periods decreased after dosing and the saliva flow remained low after 3 hrs.
Effect of Dose Ratio Between Tolterodine and Pilocarpine—In this experiment the results of two separate dose ratios between tolterodine and pilocarpine were compared with the results of placebo and administration of tolterodine alone. In one experiment, 2 mg of tolterodine was administered to a healthy individual and saliva flow was measured for 8 hours. Using a similar protocol, 2 mg of tolterodine was administered to a healthy individual at t=0, followed by 5 mg of pilocarpine at t=30 min. Similarly, 2 mg of tolterodine was administered to a healthy individual at t=0, followed by 10 mg of pilocarpine at t=30 min. Finally, the results were compared with the administration of placebo (FIG. 6 (●, closed circle)). […] Therefore, an effective dose ratio for the combination […] and pilocarpine is when 2 mg of tolterodine is combined with 10 mg of pilocarpine.
Effect of Combination of Tolterodine and Pilocarpine—In a separate human study, the combination of tolterodine and pilocarpine was administered to a healthy human subject. To the subject 2 mg of tolterodine followed by 10 mg of pilocarpine were administered with various delays in the administration of pilocarpine. Saliva flow was measured as before.
In one study, 10 mg of pilocarpine was administered to the subject 15 minutes after the administration of 2 mg of tolterodine. Saliva flow was measured as before. In another study, 10 mg of pilocarpine was administered to the subject 22 minutes after the administration of 2 mg of tolterodine. Saliva flow was measured as before. […] Saliva flow was measured as before.

[5] = Time −0.17 hr (pre-dose), text gives saliva flow in g/2 min

Structure (SMILES): CC[C@@H]1C(=O)OC[C@@H]1Cc1cncn1C [pilocarpine]
- effect of pilocarpine on the plasma concentration of oxybutynin [1]: does not affect the plasma concentration of oxybutynin at all
- time of peak saliva flow (healthy human subject [2]; pilocarpine HCl alone): half an hour
- amount of saliva flow collected over 2 minute periods after dosing (in words) (healthy human subject [2]): increased sharply
- time at which saliva flow reached the pre-dose level (healthy human subject [2]): about 5 hrs

Structure (SMILES): CC1OC2(CS1)CN1CCC2CC1 (stereo not shown) [Cevimeline, cevimeline]
- time of peak saliva flow (healthy human subject [3]; 30 mg cevimeline alone, FIG. 5): close to two hours
- Amount of Saliva Collecetd over 2 min (healthy human subject [3]; Time 0 hr): 2.6273
- Amount of Saliva Collecetd over 2 min (healthy human subject [3]; Time 0.5 hr): 2.7791
- Amount of Saliva Collecetd over 2 min (healthy human subject [3]; Time 1 hr): 4.1213
- Amount of Saliva Collecetd over 2 min (healthy human subject [3]; Time 1.5 hr): 4.6029
- Amount of Saliva Collecetd over 2 min (healthy human subject [3]; Time 2 hr): 3.7314
- Amount of Saliva Collecetd over 2 min (healthy human subject [3]; Time 2.5 hr): 3.7641
- Amount of Saliva Collecetd over 2 min (healthy human subject [3]; Time 3 hr): 3.5888
- Amount of Saliva Collecetd over 2 min (healthy human subject [3]; Time 3.5 hr): 3.9316
- Amount of Saliva Collecetd over 2 min (healthy human subject [3]; Time 4 hr): 3.5914
- Amount of Saliva Collecetd over 2 min (healthy human subject [3]; Time 5 hr): 2.6099
- Amount of Saliva Collecetd over 2 min (healthy human subject [3]; Time 6 hr): 2.205
- Amount of Saliva Collecetd over 2 min (healthy human subject [3]; Time 8 hr): 1.7973
- Amount of Saliva Collecetd over 2 min (healthy human subject [3]; [5]): 2.4808
- amount of saliva flow collected over 2 minute periods after dosing (in words) (healthy human subject [3]; FIG. 5): increased sharply
- time at which saliva flow reached the pre-dose level (healthy human subject [3]; FIG. 5): about 6 hrs

Structure (SMILES): CCN(CC)CC#CCOC(=O)C(O)(c1ccccc1)C1CCCCC1 (stereo not shown) [Oxybutynin, oxybutynin]
- time after which saliva flow started increasing again (healthy human subject [2]; 5 mg oxybutynin HCl alone): 3 h
- amount of saliva flow collected over 2 minute periods after dosing (in words) (healthy human subject [2]): decreased
- time at which saliva flow reached the pre-dose level (healthy human subject [2]): 8 h
- time after which saliva flow started increasing again (healthy human subject [3]; 5 mg oxybutynin HCl alone, FIG. 5): 3 h
- Amount of Saliva Collecetd over 2 min (healthy human subject [3]; Time 0 hr): 2.4536
- Amount of Saliva Collecetd over 2 min (healthy human subject [3]; Time 0.5 hr): 1.8558
- Amount of Saliva Collecetd over 2 min (healthy human subject [3]; Time 1 hr): 1.2308
- Amount of Saliva Collecetd over 2 min (healthy human subject [3]; Time 1.5 hr): 1.2326
- Amount of Saliva Collecetd over 2 min (healthy human subject [3]; Time 2 hr): 1.3548
- Amount of Saliva Collecetd over 2 min (healthy human subject [3]; Time 3 hr): 1.1829
- Amount of Saliva Collecetd over 2 min (healthy human subject [3]; Time 4 hr): 1.5868
- Amount of Saliva Collecetd over 2 min (healthy human subject [3]; Time 5 hr): 2.1475
- Amount of Saliva Collecetd over 2 min (healthy human subject [3]; Time 6 hr): 2.0096
- Amount of Saliva Collecetd over 2 min (healthy human subject [3]; Time 8 hr): 2.3028
- Amount of Saliva Collecetd over 2 min (healthy human subject [3]; [5]): 2.2208
- amount of saliva flow collected over 2 minute periods after dosing (in words) (healthy human subject [3]; FIG. 5): decreased
- time at which saliva flow reached the pre-dose level (healthy human subject [3]; FIG. 5): 8 h

Structure (SMILES): Cc1ccc(O)c([C@H](CCN(C(C)C)C(C)C)c2ccccc2)c1 (stereo in doubt) [tolterodine, (R)-2-[3-[bis(1-methylethyl-amino]-1-phenylpropyl]-4-methylphenol [R—(R*,R*)]-2,3-dihydroxybutanedionic acid]
- time after which saliva flow started increasing again (healthy human subject [4]): about 4 hrs
- amount of saliva flow collected over 2 minute periods after dosing (in words) (healthy human subject [4]; 8 hour period, FIGS. 6 and 7): decreased
- time at which saliva flow reached the pre-dose levels (healthy human subject [4]; not completely reached at end of observation): > 8 h
